Here are results for 18 molecules from article PMC8809056 (Science (New York, N.y.), 2021).

The test system of one series is OC43. Briefly: OC43 infection of A549 cells, viral nucleoprotein staining. The note with it: for EC50: Betacoronavirus 1, OC43, A549, 96 h, read-out: EC50 against OC43 infection; for Inhibition of OC43 infection, dose-response validation (in words): A549 cells. The format is cell-based, human beta coronavirus OC43.
In another series the test system is 3CL. More on the design: method as in doi:10.1101/2020.08.29.272864. The note with it: read-out: Previously reported IC50 in cells; cited from earlier work.
In the next series the test system is other RNA viruses. Nature of the series: Replication of other RNA viruses. The series is classed as cell-based.
In series [1] the test system is SARS-CoV-2 (nCoV/Washington/1/2020). The series is classed as in vivo, mice.
The target of a further series is T1, PLpro (Severe acute respiratory syndrome coronavirus 2, UniProt P0DTD1).
T1 construct: the papain-like protease, PLpro, a domain within nsp3
Nature of the series: PLpro activity assay. The format is biochemical, SARS-CoV-2. As to conditions: fig. S7.

The next series relates to multiple picornaviruses. Briefly: Replication of picornaviruses. The format is cell-based. As to conditions: fig. S8B.
For series [2] the following is noted: mouse, in vivo.
For series [3] the following is noted: feline model of asthma; cited from earlier work.
The next series concerns the target 3C protease (Coxsackievirus B3, UniProt P03313). The series is classed as cell-based, picornaviruses.
Another series concerns the target T2, SARS-CoV-2 3CL (Severe acute respiratory syndrome coronavirus 2, UniProt P0DTD1).
T2 construct: the main viral protease, known as Mpro, 3CLpro, or nonstructural protein 5 (nsp5); made in house
Briefly: Fluorescence-based 3CL enzyme activity assay in vitro (enzyme kinetics, Dixon plot). The format is biochemical. As to conditions: range of substrate and inhibitor concentrations, SigmaPlot fit.

The mark [4] stands for this setting: 25 mg kg−1 twice a day, day six.

3C protease, sequence (P03313 1541-1723 limits assumed): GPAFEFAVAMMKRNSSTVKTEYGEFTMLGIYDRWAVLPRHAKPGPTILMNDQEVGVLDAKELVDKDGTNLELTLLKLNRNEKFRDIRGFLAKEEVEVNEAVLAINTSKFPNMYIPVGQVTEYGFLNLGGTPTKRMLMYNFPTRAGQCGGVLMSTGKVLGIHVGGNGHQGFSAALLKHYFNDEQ
From the text for SARS-CoV-2 3CL: Individual measurements are shown as semitransparent gray circles. Error bars depict means ± SEM. […] Individual measurements are shown as circles. […] RFU, relative fluorescence units.
To test this, we measured the rate of the 3CL enzymatic reaction in vitro using a fluorescence-based enzyme activity assay ([29]). We measured the rate of 3CL activity in a range of substrate and inhibitor concentrations and fitted the data to equations describing different modes of inhibition using SigmaPlot Enzyme Kinetics Module 1.3 (see methods).

For `O=C(c1ccc(OCCN2CCCCC2)cc1)c1c(-c2ccc(O)cc2)sc2cc(O)ccc12` [Raloxifene], in the series with OC43, the EC50 is 2700 nM.
Take `O=C(Oc1cncc(Cl)c1)c1cccc2[nH]ccc12` [GRL-0496]: the concentration for half-maximal inhibition (IC50) with 3CL is 5000 nM.
`CC[C@H]1OC(=O)[C@H](C)[C@@H](O[C@H]2C[C@@](C)(OC)[C@@H](O)[C@H](C)O2)[C@H](C)[C@@H](O[C@@H]2O[C@H](C)C[C@H](N(C)C)[C@H]2O)[C@](C)(O)C[C@@H](C)C(=O)[C@H](C)[C@@H](O)[C@]1(C)O` [erythromycin]: in the series with OC43, the “Inhibition of OC43 infection, dose-response validation (in words)” value (“Inhibition of OC43 infection” for short) was “failed validation”.
On to `CCC(CC)COC(=O)[C@H](C)N[P@](=O)(OC[C@H]1O[C@@](C#N)(c2ccc3c(N)ncnn23)[C@H](O)[C@@H]1O)Oc1ccccc1` [Remdesivir], for which the 50% effective concentration (EC50) in the series on OC43 was determined as 960 nM.
In the case of `CN(C)CCCN1c2ccccc2CCc2ccc(Cl)cc21` [Clomipramine], in the series with OC43 (10 μM, 4 days), the “OC43 infection in drug-repurposing screen” value was “top hits”.
In the case of `CS(=O)(=O)CCNCc1ccc(-c2ccc3ncnc(Nc4ccc(OCc5cccc(F)c5)c(Cl)c4)c3c2)o1` [Lapatinib], in the series with OC43, the 50% effective concentration (EC50) came to 3100 nM.
The same measure, in the same setting: as for `OCCN1CCN(CCC=C2c3ccccc3Sc3ccc(C(F)(F)F)cc32)CC1` [Flupenthixol], the figure is 1800 nM; as for `COc1cc2c(Oc3ccc4[nH]c(C)cc4c3F)ncnc2cc1OCCCN1CCCC1` [Cediranib], 520 nM; as for `C[C@@H]1[C@H](O)[C@@H](C)/C=C/C=C/C=C/C=C/C=C/C=C/C=C/[C@H](O[C@@H]2O[C@H](C)[C@@H](O)[C@H](N)[C@@H]2O)C[C@@H]2O[C@](O)(C[C@@H](O)C[C@@H](O)[C@H](O)CC[C@@H](O)C[C@@H](O)CC(=O)O[C@H]1C)C[C@H](O)[C@H]2C(=O)O` [Amphotericin B], 190 nM.
For the molecule `Cc1ccc(NC(=O)c2ccc(CN3CCNCC3)cc2)cc1Nc1nc(-c2cccnc2)cs1` [AB3280], the “Inhibition of OC43 infection” value in the series with OC43 is “maintains its antiviral activity”.
For the molecule `Cc1ccc(NC(=O)c2ccc(CN3CCN(C)CC3)cc2)cc1Nc1nc(-c2cccnc2)cs1` [Masitinib], in the series on other RNA viruses, the “Effect on replication of other RNA viruses” value is listed as “not the replication of other RNA viruses”. In [1] (setting [4]), the “Reduction in viral titers in the lungs and nose (log)” value was “greater than two-log reduction”; the “Reduction of the viral load” value is given as more than 99%. The “Concentrations of proinflammatory cytokines (such as IL-1β, IFN-γ) in the lungs” value in [1] (day six) is recorded as “significantly reduced”. The Overall lung pathology entry in series [1] (day six, blindly scored 0 to 4) is given as “improved overall lung pathology”. Moreover, in series [1] (mouse, in vivo), the “Reduction in viral titers in the lungs” value is more than 200 fold and the “Reduction in viral titers in the nose” value is given as more than 200 fold. Further, the “Survival, weight loss and clinical scores” value in series [1] (up to 10 days) is recorded as “improvements in survival”. Moreover, at PLpro, the “Effect on PLpro activity” value was “no effect”. Moreover, the “Effect on replication of picornaviruses” value in the series with multiple picornaviruses is recorded as “effective in blocking the replication of multiple picornaviruses”. The Tolerability of dose entry in series [2] is given as “well tolerated, with minimal weight loss”. Also, the “Airway inflammation and lung functions” value in series [3] is “decrease airway inflammation and improve lung functions”. Further, the “Effect on 3C protease activity” value on 3C protease is listed as “significantly inhibited the activity of the 3C protease”. Besides, the “Mode of 3CL inhibition” value on SARS-CoV-2 3CL is given as “competitive inhibition gave the best fit”. Also, in the series with OC43, the EC50 came out at 2100 nM.
For the molecule `COC[C@H]1C[C@@H](c2nc(-c3ccc4c(c3)COc3cc5c(ccc6nc([C@@H]7CC[C@H](C)N7C(=O)[C@@H](NC(=O)OC)C(C)C)[nH]c65)cc3-4)c[nH]2)N(C(=O)[C@H](NC(=O)OC)c2ccccc2)C1` [Velpatasvir], in the series with OC43, the EC50 was determined as 2000 nM.
As for `Cc1ccc(NC(=O)c2ccc(CN3CC[C@H](N(C)C)C3)c(C(F)(F)F)c2)cc1Nc1nccc(-c2cncnc2)n1` [Bafetinib], the 50% effective concentration (EC50) in the series with OC43 was 2100 nM.
Regarding `Cc1ccc(O)c([C@H](CCN(C(C)C)C(C)C)c2ccccc2)c1` [tolertodine], the “Inhibition of OC43 infection” value in the series on OC43 is given as “weak inhibitors of OC43 infection”.
As for `CCCCOC(=O)c1ccc(N)cc1` [Butamben], the EC50 in the series on OC43 is 3100 nM.
Take `COc1ccc2cc1Oc1ccc(cc1)C[C@H]1c3c(cc4c(c3Oc3cc5c(cc3OC)CCN(C)[C@@H]5C2)OCO4)CCN1C` [Cepharanthine]: the 50% effective concentration (EC50) in the series on OC43 was determined as 770 nM.
The same measure, in the same setting: for `COC(=O)N[C@H](C(=O)N1CCC[C@H]1c1nc(-c2ccc3c(c2)O[C@@H](c2ccccc2)n2c-3cc3cc(-c4c[nH]c([C@@H]5CCCN5C(=O)[C@@H](NC(=O)OC)C(C)C)n4)ccc32)c[nH]1)C(C)C` [Elbasvir] the value was 170 nM; for `CCCCOC(=O)c1ccc(O)cc1` [Butylparaben], 1700 nM.
